Measured values reported in US12667583B2, “Method for preventing or treating a cornavirus infectious disease” (HENAN GENUINE BIOTECH CO., LTD., priority 2020, dated 2026).
Entries after “also recorded” stand apart in the source; their conditions may differ.

Assays:
AIDS = settings: as an anti-AIDS drug; cited from earlier work
[1] = test system: novel coronavirus (COVID-19) pneumonia; assay: Clinical trial in patients with novel coronavirus (COVID-19) pneumonia; settings: for Clinical advantage versus control (nucleic acid clearance rate, course of clearance, cure rate, course of cure): compared with the conventional treatment (Kaletra control)
novel coronaviruses = assay: in vitro antiviral activity in MRC-5 cells infected with the novel coronaviruses; type: cell-based; settings: MRC5
From the text: The inventors have determined the in vitro antiviral activity of Compound 1 in MRC-5 cells infected with the novel coronaviruses.

in vitro = settings: human
2019-nCoV (COVID-19) = assay: Inhibitory effect against 2019-nCoV (COVID-19) viruses in Huh 7 cell model, viral RNA by qRT-PCR; type: cell-based; settings: for SI: CC50/EC50, Huh 7 cells; for EC50: viral RNA copies in supernatant, 48 h
Protocol: The antiviral activity assay was performed on a Huh 7 cell model. Three replicate wells were set for each assay and the assay was repeated three times in total.
1) In each well of a 24-well cell culture plate, 5×10^4 Huh 7 cells were inoculated. Under the culture conditions of 37° C. and 5% CO2, when the confluence reached 60%, 200 μL of 2019-nCoV (COVID-19) virus solution diluted with a DMEM medium containing 2% FBS were added to each well respectively according to the multiplicity of infection MOI of 0.005. After adsorption for 1 h in a 5% CO2 incubator at 37° C., the virus solution was discarded. The positive control drug and the Azvudine amine phosphate prodrug CL-236 were subjected to 2-fold dilution with a DMEM medium containing 2% FBS from the maximum non-toxic concentration, and added to the cell plate at 500 μL/well. Meanwhile, a control group (drug-free group) was set and the supernatant virus solution was collected at 48 h after infection.
2) RNA quantification of collected viruses by real-time RT-PCR (qRT-PCR):
From the collected supernatant virus solutions, 140 μL were measured separately, and subjected to RNA extraction according to the instruction of the QIAamp viral RNA mini kit. The qRT-PCR detection was carried out using the One Step TB Green PrimeScript PLUS RT-PCR Kit (Perfect Real Time), and the primers were RBD-qF1: 5′-[…]-3′ (SEQ. ID. NO. 1); and RBD-qR1:5′-[…]-3′(SEQ. ID. NO. 2).
The total volume of the reaction system was 20 μL:10 μL of 2× One Step TB Green RT-PCR Buffer 4, 1.2 μL of TaKaRa Ex Taq HS Mix, 0.4 μL of PrimeScript PLUS RTase Mix, 0.8 μL each of RBD-qF1 and RBD-qR1, 0.4 μL of ROX Reference Dye (50×), 2 μL of viral RNA, and 4.4 μL of RNase Free dH2O. The reaction parameters were as follows: reverse transcription at 42° C. for 5 min, pre-denaturation at 95° C. for 10 s, PCR for 40 cycles including denaturation at 95° C. for 10 s and annealing and extension at 60° C. for 30 s.
3) The inhibition rates of the drug at the concentrations were calculated. Inhibition rate (%)=1−viral RNA copies in experimental group/viral RNA copies in drug-free group×100%. At the same time, the median effective concentration (EC50) and therapeutic index (TI) of the drug were calculated, therapeutic index (TI)=concentration cytotoxicity 50% (CC50)/median effective concentration (EC50).

[2] = individual patients, 10 per group, Azvudine 5 mg daily oral, Kaletra + arbidol + interferon control
[3] = Severe acute respiratory syndrome coronavirus 2, Huh 7 cells

Row | SMILES | Safety in phase II clinical trials (AIDS) | Clinical advantage versus control (nucleic acid clearance rate, course of clearance, cure rate, course of cure) [1] | Clinical advantage versus control (nucleic acid clearance rate, course of clearance, cure rate, course of cure) ([1]; listed as compound of formula (1)) | Drug-related toxic and side effects during the treatment ([1]; human, in vivo) | From inclusion confirmed by nucleic acid test to clearance [1, 2] | From inclusion confirmed by nucleic acid test to discharge [1, 2] | Patients discharged within 8 days ([1]; of 10 patients in the group) | Patients turned negative by the nucleic acid test ([1]; of 10 patients in the group) | Time to turn negative after start of treatment ([1]; one patient who had failed supportive treatment with Kaletra) | EC50 (novel coronaviruses) [µM] | CC50 (in vitro) [µM] | SI (2019-nCoV (COVID-19)) | EC50 (2019-nCoV (COVID-19); [3]) [µM] | inhibition at 0.1 µM (2019-nCoV (COVID-19); Severe acute respiratory syndrome coronavirus 2, 0.1 uM, Huh 7 cells, MOI 0.005, 48 h after infection, read-out: Virus Inhibition Rate (%)) [%] | inhibition at 0.4 µM (2019-nCoV (COVID-19); Severe acute respiratory syndrome coronavirus 2, 0.4 uM, Huh 7 cells, MOI 0.005, 48 h after infection, read-out: Virus Inhibition Rate (%)) [%] | inhibition at 1.6 µM (2019-nCoV (COVID-19); Severe acute respiratory syndrome coronavirus 2, 1.6 uM, Huh 7 cells, MOI 0.005, 48 h after infection, read-out: Virus Inhibition Rate (%)) [%] | inhibition at 6.4 µM (2019-nCoV (COVID-19); Severe acute respiratory syndrome coronavirus 2, 6.4 uM, Huh 7 cells, MOI 0.005, 48 h after infection, read-out: Virus Inhibition Rate (%)) [%] | inhibition at 25.6 µM (2019-nCoV (COVID-19); Severe acute respiratory syndrome coronavirus 2, 25.6 uM, Huh 7 cells, MOI 0.005, 48 h after infection, read-out: Virus Inhibition Rate (%)) [%] | inhibition at 102.4 µM (2019-nCoV (COVID-19); Severe acute respiratory syndrome coronavirus 2, 102.4 uM, Huh 7 cells, MOI 0.005, 48 h after infection, read-out: Virus Inhibition Rate (%)) [%]
1 | [N-]=[N+]=NC1(CO)OC(n2ccc(N)nc2=O)C(F)C1O (stereo not shown) [Compound 1, Azvudine] | good safety | significant clinical therapeutic advantages | obvious advantages | no drug-related toxic and side effects were found | Clearance: day 4; also recorded: Clearance: day 2; also recorded: one week; also recorded: Clearance: day 3 | Discharge: day 7; also recorded: Discharge: day 6; also recorded: Discharge: day 8; also recorded: Discharge: day 5 | seven | 10 | three days | 25 | – | – | – | – | – | – | – | – | –
2 | CCC(CC)COC(=O)[C@H](C)N[P@](=O)(OC[C@H]1O[C@@](C#N)(c2ccc3c(N)ncnn23)[C@H](O)[C@@H]1O)Oc1ccccc1 [Remdesivir, reference compound] | – | – | – | – | – | – | – | – | – | – | > 45 | >30.0 | 1.5 | – | – | – | – | – | –
3 | CC(C)OC(=O)[C@H](C)NP(=O)(OCC1(N=[N+]=[N-])OC(n2ccc(N)nc2=O)C(F)C1O)Oc1ccccc1 (stereo partly shown) [CL-236] | – | – | – | – | – | – | – | – | – | – | 66.2 | 20.7 | 3.2 | 9.38 | 18.8 | 37.5 | 65.6 | 75 | 81.2
